{"source": "patent US6743816B2", "about": "“Imidazole derivatives with anti-inflammatory activity” (J. Uriach & Cia S.A., priority 2000, dated 2004)", "key": {"[1]": {"molecular_target": "T1, human COX-1 (U-937 from human histiocitic lymphoma) (Homo sapiens, UniProt P23219)", "T1 construct": "cell lines expressing human COX-1 (U-937 from human histiocitic lymphoma); endogenous in cells; host or cells: U-937 (human histiocytic lymphoma)", "T1 sequence (P23219 24-599)": "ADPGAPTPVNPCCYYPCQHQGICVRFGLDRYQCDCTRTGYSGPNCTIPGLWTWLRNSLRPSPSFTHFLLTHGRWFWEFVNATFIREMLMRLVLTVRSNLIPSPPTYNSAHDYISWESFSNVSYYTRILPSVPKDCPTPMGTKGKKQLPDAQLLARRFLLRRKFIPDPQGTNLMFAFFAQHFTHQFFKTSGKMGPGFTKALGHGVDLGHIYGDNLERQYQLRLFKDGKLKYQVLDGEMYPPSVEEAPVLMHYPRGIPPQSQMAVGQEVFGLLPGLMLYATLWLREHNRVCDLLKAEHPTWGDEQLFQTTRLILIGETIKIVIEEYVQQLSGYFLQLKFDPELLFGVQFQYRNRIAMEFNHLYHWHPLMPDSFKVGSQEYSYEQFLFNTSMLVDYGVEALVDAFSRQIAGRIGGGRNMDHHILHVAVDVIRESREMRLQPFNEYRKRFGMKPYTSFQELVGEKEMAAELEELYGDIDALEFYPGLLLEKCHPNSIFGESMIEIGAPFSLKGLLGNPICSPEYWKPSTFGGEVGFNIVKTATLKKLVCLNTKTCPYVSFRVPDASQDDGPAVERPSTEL", "assay": "Inhibition of COX-1 activity in human cell line (PGE2 production after arachidonic acid)", "assay_type": "cell-based", "details": "0.1 μM test compound; U-937 cells; PGE2 after 10 μM arachidonic acid", "protocol": "(§1) Inhibition of Cyclooxygenase-1 (COX-1) and Cyclooxygenase-2 (COX-2) Activity in Human Cell Lines\nThe inhibition of COX-1 and COX-2 is determined by assessing the PGE2 production after stimulation with arachidonic acid in cell lines expressing human COX-1 (U-937 from human histiocitic lymphoma) and human COX-2 (143.98.2 from human osteosarcoma), respectively.\n(§2) The osteosarcoma-derived cells were cultured in 1 mL of DMEM culture medium supplemented with 10% fetal calf serum, in 24-well multidishes until confluence. U-937 cells were cultured in RPMI medium supplemented with 10% fetal calf serum in flasks.\n(§3) To evaluate COX-2 activity, the medium was removed and replaced with Hepes-buffered saline solution (HBSS) without Ca^2+/Mg^2+ (2×10^5 cells/well). To evaluate COX-1 activity, the medium was removed and U-937 cells were resuspended to a final density of 3×10^6 cells/mL in HBSS without Ca^2+/Mg^2+ (1 mL/well, in 24-well multidishes). 1 μL of a solution of the test compound dissolved in DMSO or vehicle was added, and the samples were incubated for 15 min at 37° C. (5% CO2 and 95% humidity). Arachidonic acid was added (final concentration: 10 μM) and the samples were incubated for 10 min more. Next the reactions were quenched by adding indomethacin (8 mM, 30 μL). The amount of PGE2 in the supernatant was determined by specific enzymatic immunoassay (Kit Prostaglandin E2, Biotrak EIA system RPN222, Amersham Pharmacia Biotech). All the assays were performed in triplicate."}, "[2]": {"molecular_target": "T2, human COX-2 (143.98.2 from human osteosarcoma) (Homo sapiens, UniProt P35354)", "T2 construct": "human COX-2 (143.98.2 from human osteosarcoma); endogenous in cells; host or cells: 143.98.2 (human osteosarcoma)", "T2 sequence (P35354 18-604)": "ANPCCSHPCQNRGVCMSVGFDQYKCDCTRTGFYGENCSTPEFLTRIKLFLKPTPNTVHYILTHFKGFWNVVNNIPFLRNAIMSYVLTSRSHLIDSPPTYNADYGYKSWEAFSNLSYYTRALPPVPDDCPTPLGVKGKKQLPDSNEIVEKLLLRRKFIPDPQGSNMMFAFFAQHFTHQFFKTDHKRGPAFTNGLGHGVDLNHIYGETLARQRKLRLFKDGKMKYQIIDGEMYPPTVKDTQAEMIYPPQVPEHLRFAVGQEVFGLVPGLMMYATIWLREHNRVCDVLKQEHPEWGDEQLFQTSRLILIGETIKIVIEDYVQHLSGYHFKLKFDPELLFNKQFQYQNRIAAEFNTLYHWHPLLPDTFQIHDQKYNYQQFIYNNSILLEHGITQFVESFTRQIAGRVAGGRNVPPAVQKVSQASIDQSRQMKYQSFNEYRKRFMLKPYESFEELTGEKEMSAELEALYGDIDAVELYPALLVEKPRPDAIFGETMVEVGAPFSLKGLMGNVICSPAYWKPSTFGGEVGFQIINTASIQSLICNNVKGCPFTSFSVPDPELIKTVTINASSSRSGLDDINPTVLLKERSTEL", "assay": "Inhibition of COX-2 activity in human cell line (PGE2 production after arachidonic acid)", "assay_type": "cell-based", "details": "0.1 μM test compound; 143.98.2 osteosarcoma cells; PGE2 after 10 μM arachidonic acid", "protocol": "as §1, §2\nas §3, with “(5% CO2 and 95% humidity).” left out"}}, "note": "Structures can show the parent of a compound that is named as a salt."}
{"compound": "COc1c(Cl)cc(-c2c(Cl)ncn2-c2ccc(S(N)(=O)=O)cc2)cc1Cl", "note": "[Example 15, 4-[4-Chloro-5-(3,5-dichloro-4-methoxyphenyl)imidazol-1-yl]benzenesulfonamide Hydrochloride]", "values": [{"measurement": "inhibition at 0.1 µM", "setting": "[1]", "value": 0, "unit": "%"}, {"measurement": "inhibition at 0.1 µM", "setting": "[2]", "value": 90, "unit": "%"}]}
{"compound": "CCOc1ccc(-c2c(Cl)ncn2-c2ccc(S(N)(=O)=O)cc2)cc1F", "note": "[Example 12, 4-[4-Chloro-5-(4-ethoxy-3-fluorophenyl)imidazol-1-yl]benzenesulfonamide]", "values": [{"measurement": "inhibition at 0.1 µM", "setting": "[1]", "value": 0, "unit": "%"}, {"measurement": "inhibition at 0.1 µM", "setting": "[2]", "value": 65, "unit": "%"}]}
{"compound": "CC(C)Oc1ccc(-c2c(Cl)ncn2-c2ccc(S(C)(=O)=O)cc2)cc1", "note": "[Example 1, 4-Chloro-5-(4-isopropoxyphenyl)-1-(4-methylsulfonylphenyl)imidazole]", "values": [{"measurement": "inhibition at 0.1 µM", "setting": "[1]", "value": 0, "unit": "%"}, {"measurement": "inhibition at 0.1 µM", "setting": "[2]", "value": 52, "unit": "%"}]}
{"compound": "CCOc1ccc(-c2c(Cl)ncn2-c2ccc(S(N)(=O)=O)cc2)cc1Cl", "note": "[Example 13, 4-[4-Chloro-5-(3-chloro-4-ethoxyphenyl)imidazol-1-yl]benzenesulfonamide]", "values": [{"measurement": "inhibition at 0.1 µM", "setting": "[1]", "value": 0, "unit": "%"}, {"measurement": "inhibition at 0.1 µM", "setting": "[2]", "value": 97, "unit": "%"}]}
{"compound": "COc1cc(-c2c(Cl)ncn2-c2ccc(S(C)(=O)=O)cc2)ccc1F", "note": "[Example 2, 4-Chloro-5-(4-fluoro-3-methoxyphenyl)-1-(4-methylsulfonylphenyl)imidazole]", "values": [{"measurement": "inhibition at 0.1 µM", "setting": "[1]", "value": 0, "unit": "%"}, {"measurement": "inhibition at 0.1 µM", "setting": "[2]", "value": 82, "unit": "%"}]}
{"compound": "CC(C)c1ccc(-c2c(Cl)ncn2-c2ccc(S(C)(=O)=O)cc2)cc1", "note": "[Example 9, 4-Chloro-5-(4-isopropylphenyl)-1-(4-methylsulfonylphenyl)imidazole]", "values": [{"measurement": "inhibition at 0.1 µM", "setting": "[1]", "value": 0, "unit": "%"}, {"measurement": "inhibition at 0.1 µM", "setting": "[2]", "value": 82, "unit": "%"}]}
{"compound": "CCOc1ccc(-c2c(Cl)ncn2-c2ccc(S(C)(=O)=O)cc2)cc1Cl", "note": "[Example 6, 4-Chloro-5-(3-chloro-4-ethoxyphenyl)-1-(4-methylsulfonylphenyl)imidazole]", "values": [{"measurement": "inhibition at 0.1 µM", "setting": "[1]", "value": 0, "unit": "%"}, {"measurement": "inhibition at 0.1 µM", "setting": "[2]", "value": 87, "unit": "%"}]}
{"compound": "COc1cc(-c2c(Cl)ncn2-c2ccc(S(N)(=O)=O)cc2)ccc1F", "note": "[Example 11, 4-[4-Chloro-5-(4-fluoro-3-methoxyphenyl)imidazol-1-yl]benzenesulfonamide]", "values": [{"measurement": "inhibition at 0.1 µM", "setting": "[1]", "value": 0, "unit": "%"}, {"measurement": "inhibition at 0.1 µM", "setting": "[2]", "value": 88, "unit": "%"}]}
{"compound": "COc1c(Cl)cc(-c2c(Cl)ncn2-c2ccc(S(C)(=O)=O)cc2)cc1Cl", "note": "[Example 8, 4-Chloro-5-(3,5-dichloro-4-methoxyphenyl)-1-(4-methylsulfonylphenyl)imidazole]", "values": [{"measurement": "inhibition at 0.1 µM", "setting": "[1]", "value": 0, "unit": "%"}, {"measurement": "inhibition at 0.1 µM", "setting": "[2]", "value": 92, "unit": "%"}]}
{"compound": "CS(=O)(=O)c1ccc(-n2cnc(Cl)c2-c2cc(F)cc(F)c2)cc1", "note": "[Example 4, 4-Chloro-5-(3,5-difluorophenyl)-1-(4-methylsulfonylphenyl)imidazole]", "values": [{"measurement": "inhibition at 0.1 µM", "setting": "[1]", "value": 2, "unit": "%"}, {"measurement": "inhibition at 0.1 µM", "setting": "[2]", "value": 57, "unit": "%"}]}
{"compound": "CCN(CC)c1ccc(-c2c(Cl)ncn2-c2ccc(S(C)(=O)=O)cc2)cc1", "note": "[Example 10, 4-Chloro-5-(4-N,N-diethylaminophenyl)-1-(4-methylsulfonylphenyl)imidazole]", "values": [{"measurement": "% Inhibition (0.1 μM) COX-1", "setting": "[1]", "value": 0, "unit": "%"}, {"measurement": "% Inhibition (0.1 μM) COX-2", "setting": "[2]", "value": 64, "unit": "%"}]}
{"compound": "CS(=O)(=O)c1ccc(-n2cnc(Cl)c2-c2ccc3c(c2)OCO3)cc1", "note": "[Example 7, 4-Chloro-5-[3,4-(methylenedioxy)phenyl]-1-(4-methylsulfonylphenyl)imidazole]", "values": [{"measurement": "% Inhibition (0.1 μM) COX-1", "setting": "[1]", "value": 1, "unit": "%"}]}
{"compound": "COc1ccc(-c2c(Cl)ncn2-c2ccc(S(N)(=O)=O)cc2)cc1Cl", "note": "[Example 14, 4-[4-Chloro-5-(3-chloro-4-methoxyphenyl)imidazol-1-yl]benzenesulfonamide]", "values": [{"measurement": "inhibition at 0.1 µM", "setting": "[1]", "value": 8, "unit": "%"}, {"measurement": "inhibition at 0.1 µM", "setting": "[2]", "value": 87, "unit": "%"}]}
{"compound": "CCOc1ccc(-c2c(Cl)ncn2-c2ccc(S(C)(=O)=O)cc2)cc1F", "note": "[Example 3, 4-Chloro-5-(4-ethoxy-3-fluorophenyl)-1-(4-methylsulfonylphenyl)imidazole]", "values": [{"measurement": "inhibition at 0.1 µM", "setting": "[1]", "value": 15, "unit": "%"}, {"measurement": "inhibition at 0.1 µM", "setting": "[2]", "value": 76, "unit": "%"}]}
{"compound": "COc1ccc(-c2c(Cl)ncn2-c2ccc(S(C)(=O)=O)cc2)cc1Cl", "note": "[Example 5, 4-Chloro-5-(3-chloro-4-methoxyphenyl)-1-(4-methylsulfonylphenyl)imidazole]", "values": [{"measurement": "inhibition at 0.1 µM", "setting": "[1]", "value": 17, "unit": "%"}, {"measurement": "inhibition at 0.1 µM", "setting": "[2]", "value": 92, "unit": "%"}]}
{"compound": "CCCc1ccc(-c2c(Cl)ncn2-c2ccc(S(C)(=O)=O)cc2)cc1", "note": "[Example 16, 4-Chloro-1-(4-methylsulfonylphenyl)-5-(4-propylphenyl)imidazole]", "values": [{"measurement": "inhibition at 0.1 µM", "setting": "[1]", "value": 0, "unit": "%"}, {"measurement": "inhibition at 0.1 µM", "setting": "[2]", "value": 48, "unit": "%"}]}
